The results in this text go back to patent US9771369B2, “Compounds and methods for kinase modulation, and indications therefor” (Plexxikon Inc., priority 2014, dated 2017).

The subject of assay [1] is BaF3-FL KIT D816V or BaF3-FL KIT V560G/D816V cell line. As to the kind of experiment: Cell-based assays of c-Kit mutant kinase activity (cell proliferation, ATPlite). Particulars: at least one of the c-kit cell assays of Example 7. In short, it runs like this: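 BaF3 cells dependent on transfected full-length human KIT D816V or V560G/D816V (pCI-Neo, CMV promoter) were seeded at 1×10^4 cells/well and exposed to 8-point 1:3 dilutions from 10 μM top (0.2% DMSO) for three days at 37° C. ATPlite luminescence gave cell number; IC50 from concentration-response.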
(In ATP-based viability assays light output follows the ATP content of the culture.)

The target of assay [2] is c-Kit kinase (Homo sapiens (Human), UniProt P10721). As to the kind of experiment: c-Kit biochemical assay (AlphaScreen kinase activity). Put shortly: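 AlphaScreen: c-Kit phosphorylates biotin-(E4Y)3 (100 nM) at 10 μM ATP, pH 7.2 HEPES buffer with Mg/Mn, 5% DMSO, 1 h room temperature; streptavidin donor and PY30 acceptor beads detect product. Second format: 100 μM ATP, 30 nM biotin-(E4Y)10, pH 7.5. IC50 from 8-point 1:3 dilution curves.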
Sequence of c-Kit kinase (P10721 26-976): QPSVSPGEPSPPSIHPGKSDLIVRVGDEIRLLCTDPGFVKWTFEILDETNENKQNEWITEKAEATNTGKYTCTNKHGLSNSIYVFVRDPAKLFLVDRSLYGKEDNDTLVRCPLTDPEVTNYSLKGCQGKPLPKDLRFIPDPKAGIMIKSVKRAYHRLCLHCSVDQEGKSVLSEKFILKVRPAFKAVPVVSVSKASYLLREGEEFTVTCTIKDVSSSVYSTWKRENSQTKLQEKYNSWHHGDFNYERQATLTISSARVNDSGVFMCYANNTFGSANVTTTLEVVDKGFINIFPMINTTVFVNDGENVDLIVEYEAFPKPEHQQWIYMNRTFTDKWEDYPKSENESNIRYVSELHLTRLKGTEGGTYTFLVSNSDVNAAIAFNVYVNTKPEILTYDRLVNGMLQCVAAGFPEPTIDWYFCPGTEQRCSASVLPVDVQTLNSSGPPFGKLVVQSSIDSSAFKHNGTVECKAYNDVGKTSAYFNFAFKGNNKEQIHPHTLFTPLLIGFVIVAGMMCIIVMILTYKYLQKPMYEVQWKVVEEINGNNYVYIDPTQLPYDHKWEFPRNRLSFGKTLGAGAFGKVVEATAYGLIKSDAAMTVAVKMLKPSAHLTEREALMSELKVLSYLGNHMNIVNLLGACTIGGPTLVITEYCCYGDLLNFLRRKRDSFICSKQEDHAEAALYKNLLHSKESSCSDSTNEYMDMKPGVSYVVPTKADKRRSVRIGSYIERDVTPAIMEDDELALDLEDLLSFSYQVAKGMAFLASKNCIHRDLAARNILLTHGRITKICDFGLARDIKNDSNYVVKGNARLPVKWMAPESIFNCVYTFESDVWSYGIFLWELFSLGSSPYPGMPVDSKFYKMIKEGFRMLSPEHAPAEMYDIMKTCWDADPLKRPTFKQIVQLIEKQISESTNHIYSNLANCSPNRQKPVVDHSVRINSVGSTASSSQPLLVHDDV
Background: Alpha assays give light when donor and acceptor beads are brought close together.

Usually IC50 stands for the concentration needed to halve the response being measured. On to `Cc1nc(C2(C)CCN(c3ncnc4[nH]c(-c5ccc(C#N)cc5)cc34)CC2)[nH]c1-c1ccc(C(F)(F)F)cc1` [P-3177, 4-[4-[4-methyl-4-[4-methyl-5-[4-(trifluoromethyl)phenyl]-1H-imidazol-2-yl]-1-piperidyl]-7H-pyrrolo[2,3-d]pyrimidin-6-yl]benzonitrile], for which the IC50 in assay [1] is < 10 µM; in assay [2], 0.0001 to 1 µM.

In the case of `COc1ccc(-c2cc3c(N4CCC(C)(c5nc(C)c(-c6ccc(C(F)(F)F)cc6)[nH]5)CC4)ncnc3[nH]2)cn1` [P-3178, 6-(6-methoxy-3-pyridyl)-4-[4-methyl-4-[4-methyl-5-[4-(trifluoromethyl)phenyl]-1H-imidazol-2-yl]-1-piperidyl]-7H-pyrrolo[2,3-d]pyrimidine], the IC50 in assay [1] was < 10 µM; in assay [2], 0.0001 to 1 µM.

As for `Cc1nc(C2(C)CCN(c3ncnc4[nH]c(-c5cnn(C(F)F)c5)cc34)CC2)[nH]c1-c1ccc(C(F)(F)F)cc1` [P-3179, 6-[1-(difluoromethyl)pyrazol-4-yl]-4-[4-methyl-4-[4-methyl-5-[4-(trifluoromethyl)phenyl]-1H-imidazol-2-yl]-1-piperidyl]-7H-pyrrolo[2,3-d]pyrimidine], the results for the IC50 in assay [1] and in assay [2] were < 10 µM and 0.0001 to 1 µM, respectively.

On to `Cc1nc(C2(C)CCN(c3ncnc4[nH]c(-c5ccc(C#N)cc5)cc34)CC2)[nH]c1-c1ccc(Cl)cc1` [P-3180, 4-[4-[4-[5-(4-chlorophenyl)-4-methyl-1H-imidazol-2-yl]-4-methyl-1-piperidyl]-7H-pyrrolo[2,3-d]pyrimidin-6-yl]benzonitrile], for which the IC50 in assay [1] was < 10 µM; in assay [2], 0.0001 to 1 µM.

With `COc1ncc(-c2[nH]c(C3(C)CCN(c4ncnc5[nH]c(-c6ccc(C#N)cc6)cc45)CC3)nc2C)cc1F` [P-3181, 4-[4-[4-[5-(5-fluoro-6-methoxy-3-pyridyl)-4-methyl-1H-imidazol-2-yl]-4-methyl-1-piperidyl]-7H-pyrrolo[2,3-d]pyrimidin-6-yl]benzonitrile], the values for the IC50 in assay [1] and in assay [2] were < 10 µM and 0.0001 to 1 µM, respectively.

As to `COc1ccc(-c2[nH]c(C3(C)CCN(c4ncnc5[nH]c(-c6cnn(C(F)F)c6)cc45)CC3)nc2C)cn1` [P-3182, 6-[1-(difluoromethyl)pyrazol-4-yl]-4-[4-[5-(6-methoxy-3-pyridyl)-4-methyl-1H-imidazol-2-yl]-4-methyl-1-piperidyl]-7H-pyrrolo[2,3-d]pyrimidine], the results for the half-maximal inhibitory concentration (IC50) in assay [1] and in assay [2] were < 10 µM and 0.0001 to 1 µM, respectively.

`COc1ccc(-c2[nH]c(C3(C)CCN(c4ncnc5[nH]c(C)cc45)CC3)nc2C)cc1F` [P-3183, 4-[4-[5-(3-fluoro-4-methoxy-phenyl)-4-methyl-1H-imidazol-2-yl]-4-methyl-1-piperidyl]-6-methyl-7H-pyrrolo[2,3-d]pyrimidine]: the IC50 in assay [1] is < 10 µM; in assay [2], 0.0001 to 1 µM.

On to `Cc1cc2c(N3CCC(C)(c4nc(C)c(-c5ccc(C(F)F)cc5)[nH]4)CC3)ncnc2[nH]1` [P-3184, 4-[4-[5-[4-(difluoromethyl)phenyl]-4-methyl-1H-imidazol-2-yl]-4-methyl-1-piperidyl]-6-methyl-7H-pyrrolo[2,3-d]pyrimidine], for which the IC50 was < 10 µM in assay [1] and 0.0001 to 1 µM in assay [2].

Turning to `COc1ncc(-c2nc(C3(C)CCN(c4ncnc5[nH]c(C)cc45)CC3)[nH]c2C)cc1F` [P-3185, 4-[4-[4-(5-fluoro-6-methoxy-3-pyridyl)-5-methyl-1H-imidazol-2-yl]-4-methyl-1-piperidyl]-6-methyl-7H-pyrrolo[2,3-d]pyrimidine], the IC50 in assay [1] is < 10 µM; in assay [2], 1 to 10 µM.

For the compound `COc1ccc(-c2nc(C3(C)CCN(c4ncnc5[nH]c(C)cc45)CC3)[nH]c2C)cn1` [P-3186, 4-[4-[4-(6-methoxy-3-pyridyl)-5-methyl-1H-imidazol-2-yl]-4-methyl-1-piperidyl]-6-methyl-7H-pyrrolo[2,3-d]pyrimidine], the IC50 in assay [1] is < 10 µM; in assay [2] it was 1 to 10 µM.

Regarding `COc1ccc(-c2[nH]c(C3(C)CCN(c4ncnc5[nH]c(-c6cnn(C(F)F)c6)cc45)CC3)nc2C)cc1F` [P-3187, 6-[1-(difluoromethyl)pyrazol-4-yl]-4-[4-[5-(3-fluoro-4-methoxy-phenyl)-4-methyl-1H-imidazol-2-yl]-4-methyl-1-piperidyl]-7H-pyrrolo[2,3-d]pyrimidine], the IC50 was < 10 µM in assay [1] and 0.0001 to 1 µM in assay [2].

For `COc1ccc(-c2cc3c(N4CCC(C)(c5nc(C)c(-c6ccc(OC)c(F)c6)[nH]5)CC4)ncnc3[nH]2)cn1` [P-3188, 4-[4-[5-(3-fluoro-4-methoxy-phenyl)-4-methyl-1H-imidazol-2-yl]-4-methyl-1-piperidyl]-6-(6-methoxy-3-pyridyl)-7H-pyrrolo[2,3-d]pyrimidine], the IC50 in assay [1] was < 10 µM; in assay [2] it was 0.0001 to 1 µM.

With `Cc1nc(C2(C)CCN(c3ncnc4[nH]c(-c5cnn(C(F)F)c5)cc34)CC2)[nH]c1-c1ccc(C(F)F)cc1` [P-3189, 4-[4-[5-[4-(difluoromethyl)phenyl]-4-methyl-1H-imidazol-2-yl]-4-methyl-1-piperidyl]-6-[1-(difluoromethyl)pyrazol-4-yl]-7H-pyrrolo[2,3-d]pyrimidine], the IC50 in assay [1] is < 10 µM; in assay [2], 0.0001 to 1 µM.

As for `COc1ccc(-c2cc3c(N4CCC(C)(c5nc(C)c(-c6ccc(C(F)F)cc6)[nH]5)CC4)ncnc3[nH]2)cn1` [P-3190, 4-[4-[5-[4-(difluoromethyl)phenyl]-4-methyl-1H-imidazol-2-yl]-4-methyl-1-piperidyl]-6-(6-methoxy-3-pyridyl)-7H-pyrrolo[2,3-d]pyrimidine], the IC50 in assay [1] is < 10 µM; in assay [2], 0.0001 to 1 µM.

Consider `Cc1cc2c(N3CCC(C)(c4nc(C)c(-c5cccc(OC(F)F)c5)[nH]4)CC3)ncnc2[nH]1` [P-3191, 4-[4-[5-[3-(difluoromethoxy)phenyl]-4-methyl-1H-imidazol-2-yl]-4-methyl-1-piperidyl]-6-methyl-7H-pyrrolo[2,3-d]pyrimidine], for which the IC50 is < 10 µM in assay [1] and 1 to 10 µM in assay [2].

For the compound `Cc1nc(C2(C)CCN(c3ncnc4[nH]c(-c5cnn(C(F)F)c5)cc34)CC2)[nH]c1-c1cccc(OC(F)F)c1` [P-3192, 4-[4-[5-[3-(difluoromethoxy)phenyl]-4-methyl-1H-imidazol-2-yl]-4-methyl-1-piperidyl]-6-[1-(difluoromethyl)pyrazol-4-yl]-7H-pyrrolo[2,3-d]pyrimidine], the IC50 in assay [1] is < 10 µM; in assay [2] it was 0.0001 to 1 µM.

`COc1ccc(-c2cc3c(N4CCC(C)(c5nc(C)c(-c6cccc(OC(F)F)c6)[nH]5)CC4)ncnc3[nH]2)cn1` [P-3193, 4-[4-[5-[3-(difluoromethoxy)phenyl]-4-methyl-1H-imidazol-2-yl]-4-methyl-1-piperidyl]-6-(6-methoxy-3-pyridyl)-7H-pyrrolo[2,3-d]pyrimidine]: the IC50 is < 10 µM in assay [1] and 0.0001 to 1 µM in assay [2].

Regarding `Cc1nc(C2(C)CCN(c3ncnc4[nH]c(-c5ccc(C#N)cc5)cc34)CC2)[nH]c1-c1cccc(OC(F)F)c1` [P-3194, 4-[4-[4-[5-[3-(difluoromethoxy)phenyl]-4-methyl-1H-imidazol-2-yl]-4-methyl-1-piperidyl]-7H-pyrrolo[2,3-d]pyrimidin-6-yl]benzonitrile], the values for the half-inhibitory concentration (IC50) in assay [1] and in assay [2] were < 10 µM and 1 to 10 µM, respectively.

Take `Cc1nc(C2(C)CCN(c3ncnc4[nH]c(-c5ccc(C#N)cc5)cc34)CC2)[nH]c1-c1ccc(OC(F)F)cc1` [P-3195, 4-[4-[4-[5-[4-(difluoromethoxy)phenyl]-4-methyl-1H-imidazol-2-yl]-4-methyl-1-piperidyl]-7H-pyrrolo[2,3-d]pyrimidin-6-yl]benzonitrile]: the IC50 is < 10 µM in assay [1] and 0.0001 to 1 µM in assay [2].

Consider `Cc1cc2c(N3CCC(C)(c4nc(C)c(-c5ccc(OC(F)F)cc5)[nH]4)CC3)ncnc2[nH]1` [P-3196, 4-[4-[5-[4-(difluoromethoxy)phenyl]-4-methyl-1H-imidazol-2-yl]-4-methyl-1-piperidyl]-6-methyl-7H-pyrrolo[2,3-d]pyrimidine], for which the IC50 in assay [1] is < 10 µM; in assay [2], 1 to 10 µM.

For `CCc1[nH]c(C2CCN(c3ncnc4[nH]c(-c5cnn(C(F)F)c5)cc34)CC2)nc1C` [P-3197, 6-[1-(difluoromethyl)pyrazol-4-yl]-4-[4-(5-ethyl-4-methyl-1H-imidazol-2-yl)-1-piperidyl]-7H-pyrrolo[2,3-d]pyrimidine], the IC50 in assay [1] was < 10 µM; in assay [2], 1 to 10 µM.

Regarding `CCc1[nH]c(C2CCN(c3ncnc4[nH]c(-c5ccc(C#N)cc5)cc34)CC2)nc1C` [P-3198, 4-[4-[4-(5-ethyl-4-methyl-1H-imidazol-2-yl)-1-piperidyl]-7H-pyrrolo[2,3-d]pyrimidin-6-yl]benzonitrile], the IC50 in assay [1] was < 10 µM; in assay [2] it was 1 to 10 µM.

With `COc1ccc(-c2[nH]c(C3(C)CCN(c4ncnc5[nH]c(-c6ccc(C(=O)O)cc6)cc45)CC3)nc2C)cc1F` [P-3199, 4-[4-[4-[5-(3-fluoro-4-methoxy-phenyl)-4-methyl-1H-imidazol-2-yl]-4-methyl-1-piperidyl]-7H-pyrrolo[2,3-d]pyrimidin-6-yl]benzoic acid], the IC50 was < 10 µM in assay [1] and 0.0001 to 1 µM in assay [2].

Turning to `Cc1nc(C2(C)CCN(c3ncnc4[nH]nc(C)c34)CC2)[nH]c1-c1ccc(Cl)cc1` [P-3200, 4-[4-[5-(4-chlorophenyl)-4-methyl-1H-imidazol-2-yl]-4-methyl-1-piperidyl]-3-methyl-1H-pyrazolo[3,4-d]pyrimidine], the IC50 in assay [1] was < 10 µM; in assay [2], 1 to 10 µM.
